US10577374B2, “Bruton's tyrosine kinase inhibitors” (priority 2009, dated 2020)

Molecular target: BTK (Homo sapiens (Human), UniProt Q06187)
Assay: In vitro BTK kinase assay: BTK-POLYGAT-LS ASSAY
Assay type: biochemical
Conditions: read-out: IC50 (10 uM ATP), polyGAT 100 nM, BTK 0.25 nM

Chain of BTK (Q06187 whole entry): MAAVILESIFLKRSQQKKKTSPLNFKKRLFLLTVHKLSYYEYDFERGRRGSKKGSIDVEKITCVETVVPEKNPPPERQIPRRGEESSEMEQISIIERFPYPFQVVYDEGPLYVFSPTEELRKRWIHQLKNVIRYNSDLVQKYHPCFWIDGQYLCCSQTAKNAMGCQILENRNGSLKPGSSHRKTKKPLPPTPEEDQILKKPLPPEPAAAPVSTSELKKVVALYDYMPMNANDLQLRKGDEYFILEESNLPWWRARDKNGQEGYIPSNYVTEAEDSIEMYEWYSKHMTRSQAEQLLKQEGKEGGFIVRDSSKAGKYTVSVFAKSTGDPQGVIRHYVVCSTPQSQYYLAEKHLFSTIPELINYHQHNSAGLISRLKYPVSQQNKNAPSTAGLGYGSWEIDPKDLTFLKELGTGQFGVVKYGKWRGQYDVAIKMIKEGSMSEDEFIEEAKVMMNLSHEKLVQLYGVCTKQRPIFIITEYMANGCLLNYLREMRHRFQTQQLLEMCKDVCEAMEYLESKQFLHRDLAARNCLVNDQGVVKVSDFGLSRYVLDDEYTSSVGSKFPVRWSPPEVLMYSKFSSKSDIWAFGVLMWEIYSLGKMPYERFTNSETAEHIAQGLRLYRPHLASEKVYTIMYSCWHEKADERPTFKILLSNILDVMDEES

IC50: > 10 µM
Substance: 1-(3-(1-(methylsulfonyl)-4-(7H-pyrrolo[2,3-d]pyrimidin-4-yl)piperazin-2-yl)phenyl)-3-phenylurea [compound 128]
